Reference: patent publication US7144880B2, “Compositions relating to novel compounds and targets thereof” (Regents of the University of Michigan, priority 2003, dated 2006)
Where two headings read alike, the source gives them in different places.

Assays:
[1] = target: T1, mitochondrial F1F0-ATPase (Bos taurus, UniProt P13621); test: ATPase activity in sub-mitochondrial particles (SMPs); format: biochemical, bovine; settings: 80 μM
T1 construct: from tissue
Description: Oligomycin, a macrolide natural product that binds to the mitochondrial F1F0-ATPase, induces a state 3 to 4 transition and generates O2^− like Bz-423. Based on these similarities, it is possible that the F1F0-ATPase is also the molecular target for Bz-423. To test this hypothesis, the effect of Bz-423 on ATPase activity in sub-mitochondrial particles (SMPs) was examined.
>40 derivatives of Bz-423 were developed to determine the elements on this novel agent required for biological activity. […] The potency of these analogues in cell based assays correlated with the ED50 values in ATPase inhibition experiments using SMPs.

Ramos B cells [2] = test: cells; format: cell-based, human
Procedure: Cell viability is assessed by staining with propidium iodide (PI, 1 μg/mL). PI fluorescence is measured using a FACScalibur flow cytometer (Becton Dickinson, San Diego, Calif.). Measurement of hypodiploid DNA is conducted after incubating cells in DNA-labeling solution (50 μg/mL of PI in PBS containing 0.2% Triton and 10 μg/mL RNAse A) overnight at 4 degrees C. The data is analyzed using the CellQuest software excluding aggregates.

Ramos B cells [3] = format: cell-based, human; settings: micromolar FK506
[4] = system: isolated rat liver mitochondria; test: ROS production in isolated mitochondria (DCFH oxidation to DCF); format: biochemical
Procedure: Male Long Evans rats are starved overnight and sacrificed by decapitation. Liver samples are homogenized in ice cold buffer A (250 mM sucrose, 10 mM Tris, 0.1 mM EGTA, pH 7.4), and nuclei and cellular debris are pelleted (10 min, 830 g, 4° C.). Mitochondria are collected by centrifugation (10 min, 15,000 g, 4° C.), and the supernatant is collected as the S15 fraction. The mitochondrial pellet is washed three times with buffer B (250 mM sucrose, 10 mM Tris, pH 7.4), and re-suspended in buffer B at 20–30 mg/mL. Mitochondria are diluted (0.5 mg/mL) in buffer C (200 mM sucrose, 10 mM Tris, pH 7.4, 1 mM KH2PO4, 10 μM EGTA, 2.5 μM rotenone, 5 mM succinate) containing 2′,7′-dichlorodihydrofluorescin diacetate (DCFH-DA, 1 μM). For state 3 measurements, ADP (2 mM) is included in the buffer, and prior to the addition of Bz-423, mitochondria are allowed to charge for 2 min. To induce state 4, oligomycin (10 μM) is added to buffer C. […] To detect effects on O2^− and delta ψm, mitochondria are incubated for 15 min at 37° C. in buffer C with vehicle, Bz-423, or CCCP containing DHE (5 μM) or DIOC6(3) (20 nM), and aliquots are removed for analysis by fluorescence microscopy.
O2^− production by Bz-423 may result from binding to a protein within mitochondria or a target in another compartment that signals mitochondria to generate ROS. To distinguish between these alternatives, isolated rat liver mitochondria were assayed for ROS production by monitoring the oxidation of 2′,7′-dichlorodihydrofluorescin diacetate to of 2′,7′-dichlorofluorescin in the presence and absence of Bz-423. In this assay, the rate of DCF production increased after a lag period during which endogenous reducing equivalents were consumed and the acetate moieties on the probe were hydrolyzed to yield 2′,7′-dichlorodihydrofluorescin, the redox-active species.

[5] = system: ornithine decarboxylase (ODC); test: ODC activity in treated cells, conversion of 3H-ornithine to putrescine; format: cell-based; settings: cells treated 4 h
Procedure: In these experiments, the conversion of ornithine to putrescine was quantified using ^3H-ornithine. For comparisons, control cells were treated with vehicle control or difluoromethyl ornithine (DFMO), a potent inhibitor of ornithine decarboxylase (like Bz-423, DFMO is a potent anti-proliferative agent). […] The reduction in ODC activity was paralleled by a decrease in ODC protein levels measured under the same conditions.
As described above, Bz-423 induced apoptosis was signaled by an ROS response that arose from MRC complex III as a result of the state 3 to 4 transition. It was next sought to determine if the ROS response, critical for apoptosis, also mediated these effects on ODC. If the ROS was required for the decrease in ODC activity, it would likewise be implicated as potentially part of the anti-proliferative response to Bz-423. To test this, Ramos cells were treated with Bz-423, DFMO, or vehicle control for 4 h. In parallel, a second group of cells was pre-incubated with MnTBAP to limit the ROS and then cultured with Bz-423, DFMO, and vehicle control.

[6] = system: panel of cells in Table 2; test: Antiproliferation against the panel of cells, 3 d; format: cell-based; settings: after 3 d
cells = format: cell-based
human OSCP = target: T2, human OSCP (Homo sapiens, UniProt P48047); test: Quenching of intrinsic OSCP fluorescence on titration (binding isotherm); settings: Bz-Cl, binds less tightly
T2 construct: made in house; host or cells: E. coli
T2 sequence (P48047 24-213): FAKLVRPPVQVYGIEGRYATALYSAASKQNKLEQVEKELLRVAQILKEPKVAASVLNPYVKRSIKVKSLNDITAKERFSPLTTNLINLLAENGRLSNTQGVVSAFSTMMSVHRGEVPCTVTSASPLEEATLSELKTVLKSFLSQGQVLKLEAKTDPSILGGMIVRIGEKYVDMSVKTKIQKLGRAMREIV
Description: Oligomycin is a macrolide natural product that binds to the mitochondrial F1F0-ATPase, induces a state 3 to 4 transition, and as a result, generates ROS (e.g., O2^−). In preferred embodiments, the present invention binds the OSCP component of the mitochondrial F1F0-ATPase. In certain embodiments, screening assays of the present invention permit detection of binding partners of the OSCP. OSCP is an intrinsically fluorescent protein. In certain embodiments, titrating a solution of test compounds of the present invention into an E. Coli sample overexpressed with OSCP results in quenching of the intrinsic OSCP fluorescence. In other embodiments, fluorescent or radioactive test compounds can be used in direct binding assays. In other embodiments, competition binding experiments can be conducted. In this type of assay, test compounds are assessed for their ability to compete with Bz-423 for binding to the OSCP. In some embodiments, the compounds of the present invention cause a reduced increase in cellular ROS levels and reduced apoptosis in cells through regulation of the OSCP gene (e.g., altering expression of the OSCP gene). In further embodiments, the present invention functions by altering the molecular motions of the ATPase motor.
To determine if Bz-423 indeed binds to the OSCP and the affinity of the interaction, human OSCP was overexpressed in E. coli. […]

[7] = Ramos B cells, 24 h, propidium iodide exclusion, flow cytometry, error ±5%, read-out: EC50 (μM), cell death

For `CN1C(=O)CN=C(c2ccc(Cl)cc2)c2cc(Cl)ccc21` [4-Cl-diazepam, 4-chlorodiazepam], the “Inhibition of mitochondrial ATPase activity” value [1] was “do not significantly inhibit”.
With `CCC(C)N(C)C(=O)c1cc2ccccc2c(-c2ccccc2Cl)n1` (centres unmarked) [PK11195, reference compound] the EC50 (Ramos B cells [2]; Homo sapiens, Ramos B cells, 24 h, propidium iodide exclusion, flow cytometry, error ±5%, read-out: EC50 (μM), cell death) was greater than 80 µM and the “Inhibition of mitochondrial ATPase activity” value [1] was “do not significantly inhibit”.
For `Cc1cc(C2=NC(Cc3ccc4ccccc4c3)C(=O)N(C)c3ccc(Cl)cc32)ccc1O` (centres unmarked) [Compound 16], the “Cytotoxic potency compared with Bz-423” value (Ramos B cells [2]) was “does not alter the activity”, the EC50 (Ramos B cells [2]; assessed as described in Table 1, read-out: EC50, cell death) was 3 µM and the “Inhibition of compound-induced cell death by FK506” value (Ramos B cells [3]) was “≈ 60%”.
`CN1C(=O)C(Cc2ccc3ccccc3c2)N=C(c2ccccc2)c2cc(Cl)ccc21` (centres unmarked) [Compound 2] was tested, and the EC50 (Ramos B cells [2]; [7]) was greater than 80 µM.
For `CN1C(=O)CN=C(c2ccc(O)cc2)c2cc(Cl)ccc21` [Compound 1], the EC50 (Ramos B cells [2]; [7]) was greater than 80 µM.
antimycin A [reference compound] was tested, and the “Increase in rate of ROS production versus control” value ([4]; state 3 respiration, aerobic, after induction phase, slopes compared to control) was “nearly two-fold” and the “ROS production in state 4 mitochondria” value ([4]; state 4 respiration) was “is active”.
In the case of `CN1C(=O)C(Cc2ccc3ccccc3c2)N=C(c2ccc(Cl)cc2)c2cc(Cl)ccc21` (centres unmarked) [Bz-Cl], the “Effect on ODC activity” value [5] is reported as “inhibited ODC activity”, the “Reduction of proliferation compared with Bz-423” value [6] is reported as “comparable ED50 values” and the “Decrease of cytotoxic activity compared to Bz-423” value (cells) is reported as roughly 80%. The Kd (human OSCP) was roughly 5 µM.
